What is called IC50 is the concentration that gives 50% inhibition.

Experimental findings from publication PMC2810227, “3-O-Methylfunicone, a Selective Inhibitor of Mammalian Y-Family DNA Polymerases from an Australian Sea Salt Fungal Strain” (Marine Drugs, 2009) are described below.

Holding throughout (assay type): biochemical
One test has as its target T1, fruit fly pol δ (Drosophila melanogaster, UniProt P54358).
T1 construct: purified from early embryos of Drosophila melanogaster; from tissue; host or cells: early embryos of Drosophila melanogaster
Nature of the test: DNA polymerase assay, insect pol δ. Particulars: 100 μM.

In a further test the target is T2, human topoisomerase I (Homo sapiens, UniProt P11387).
T2 construct: Purified human placenta DNA topoisomerases I and II were purchased from TopoGen, Inc; purchased TopoGen, Inc. (Columbus, OH, USA); host or cells: human placenta (tissue-purified)
T2 sequence (P11387 whole entry): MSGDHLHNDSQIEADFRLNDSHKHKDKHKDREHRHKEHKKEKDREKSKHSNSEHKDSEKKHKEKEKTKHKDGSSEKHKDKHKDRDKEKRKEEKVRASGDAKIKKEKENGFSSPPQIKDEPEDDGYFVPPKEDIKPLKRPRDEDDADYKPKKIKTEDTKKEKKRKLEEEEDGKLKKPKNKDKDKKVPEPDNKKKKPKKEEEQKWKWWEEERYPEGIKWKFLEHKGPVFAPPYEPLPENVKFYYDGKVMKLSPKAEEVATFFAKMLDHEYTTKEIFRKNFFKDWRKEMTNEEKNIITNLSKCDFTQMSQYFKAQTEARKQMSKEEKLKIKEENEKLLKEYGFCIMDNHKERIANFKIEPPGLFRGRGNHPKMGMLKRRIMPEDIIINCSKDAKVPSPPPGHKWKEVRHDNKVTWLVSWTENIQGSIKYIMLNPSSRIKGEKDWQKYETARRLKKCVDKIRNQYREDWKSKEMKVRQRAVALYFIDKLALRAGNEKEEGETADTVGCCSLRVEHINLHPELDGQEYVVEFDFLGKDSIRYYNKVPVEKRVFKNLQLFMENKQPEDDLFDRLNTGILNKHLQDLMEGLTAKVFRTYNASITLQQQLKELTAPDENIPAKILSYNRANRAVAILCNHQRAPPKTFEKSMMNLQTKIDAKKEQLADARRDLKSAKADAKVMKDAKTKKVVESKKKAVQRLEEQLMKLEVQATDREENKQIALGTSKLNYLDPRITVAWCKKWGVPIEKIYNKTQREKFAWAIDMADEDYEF
The experiment in a line: DNA topoisomerase I assay. The conditions noted are these: 100 μM. From the text: (§1) Pol α was purified from calf thymus by immuno-affinity column chromatography, as described by Tamai et al.. Recombinant rat pol β was purified from E. coli JMpβ5, as described by Date et al.. The human pol γ catalytic gene was cloned into pFastBac. Histidine-tagged enzyme was expressed using the BAC-TO-BAC HT Baculovirus Expression System according to the supplier’s manual (Life Technologies, MD, USA) and purified using ProBoundresin (Invitrogen Japan, Tokyo, Japan). Human pols δ and ɛ were purified by nuclear fractionation of human peripheral blood cancer cells (Molt-4) using the second subunit of pols δ and ɛ-conjugated affinity column chromatography, respectively. A truncated form of human pol η (residues 1–511) tagged with His6 at its C-terminal was expressed in E. coli cells and purified as described by Kusumoto et al.. […]
(§2) The activities of calf primase of pol α, human telomerase, T7 RNA polymerase, mouse IMP dehydrogenase, human DNA topoisomerases I and II, T4 polynucleotide kinase and bovine DNase I were measured in standard assays according to the manufacturer’s specifications, as described by Tamiya-Koizumi et al., Oda et al., Nakayama et al., Mizushina et al., Ishimaru et al., Soltis et al. and Lu et al., respectively.

The target of another test is T3, human pol η (Homo sapiens, UniProt Q9Y253).
T3 construct: A truncated form of human pol η (residues 1–511); His6 (C); made in house; host or cells: E. coli
T3 sequence (Q9Y253 1-511): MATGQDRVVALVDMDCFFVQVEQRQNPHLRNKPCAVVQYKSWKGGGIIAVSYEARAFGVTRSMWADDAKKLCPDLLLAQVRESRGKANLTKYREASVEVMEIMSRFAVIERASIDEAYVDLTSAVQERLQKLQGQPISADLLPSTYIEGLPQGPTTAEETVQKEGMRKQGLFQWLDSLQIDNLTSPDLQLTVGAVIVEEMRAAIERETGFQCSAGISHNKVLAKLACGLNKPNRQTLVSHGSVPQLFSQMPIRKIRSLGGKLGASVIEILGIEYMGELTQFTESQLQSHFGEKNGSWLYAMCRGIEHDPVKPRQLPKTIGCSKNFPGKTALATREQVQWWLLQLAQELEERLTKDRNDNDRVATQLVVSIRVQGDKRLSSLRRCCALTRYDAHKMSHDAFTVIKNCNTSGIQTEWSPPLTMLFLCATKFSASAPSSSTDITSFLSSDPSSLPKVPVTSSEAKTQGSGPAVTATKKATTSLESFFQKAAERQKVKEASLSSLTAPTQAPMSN
The experiment in a line: DNA polymerase assay, pol η. The text has this:
(§3) Pol α was purified from calf thymus by immuno-affinity column chromatography, as described by Tamai et al.. Recombinant rat pol β was purified from E. coli JMpβ5, as described by Date et al.. The human pol γ catalytic gene was cloned into pFastBac. Histidine-tagged enzyme was expressed using the BAC-TO-BAC HT Baculovirus Expression System according to the supplier’s manual (Life Technologies, MD, USA) and purified using ProBoundresin (Invitrogen Japan, Tokyo, Japan). Human pols δ and ɛ were purified by nuclear fractionation of human peripheral blood cancer cells (Molt-4) using the second subunit of pols δ and ɛ-conjugated affinity column chromatography, respectively. A truncated form of human pol η (residues 1–511) tagged with His6 at its C-terminal was expressed in E. coli cells and purified as described by Kusumoto et al.. A recombinant mouse pol ι tagged with His6 at its C-terminal was expressed and purified by Ni-NTA column chromatography as described elsewhere (Masutani et al., in preparation). […]
(§4) The compounds were dissolved in distilled dimethyl sulfoxide (DMSO) at various concentrations and sonicated for 30 sec. […] Activity without the inhibitor was considered 100%, and the remaining activity at each concentration of the inhibitor was determined relative to this value. […]

Test [1] addresses mouse inosine 5′-monophosphate (IMP) dehydrogenase (type II) (Mus musculus, UniProt P24547). The experiment in a line: IMP dehydrogenase assay. The conditions noted are these: 100 μM. The procedure: as §2
A further test has as its system calf primase of pol α. Nature of the test: Primase assay. Particulars: 100 μM. The procedure: as §2
For a further test, the system named is cauliflower pol α. The experiment in a line: DNA polymerase assay, plant pol α. Particulars: 100 μM.
From the text: as §3, §4

In the next test the target is T4, bovine DNase I (Bos taurus, UniProt P00639).
T4 construct: Calf thymus TdT and bovine pancreas DNase I were obtained from Stratagene Cloning Systems; purchased Stratagene Cloning Systems (La Jolla, CA, USA); host or cells: bovine pancreas (tissue)
T4 sequence (P00639 23-282): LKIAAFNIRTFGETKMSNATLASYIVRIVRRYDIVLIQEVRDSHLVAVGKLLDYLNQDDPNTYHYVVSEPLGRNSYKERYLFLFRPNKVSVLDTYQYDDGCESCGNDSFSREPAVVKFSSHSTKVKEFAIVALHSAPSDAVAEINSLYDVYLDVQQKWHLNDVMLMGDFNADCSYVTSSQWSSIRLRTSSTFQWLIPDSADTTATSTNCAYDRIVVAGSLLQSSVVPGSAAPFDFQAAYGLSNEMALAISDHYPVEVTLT
Nature of the test: DNase I assay. The conditions noted are these: 100 μM.
From the text: as §1, §2

In another test the target is T5, rat pol β (Rattus norvegicus, UniProt P06766).
T5 construct: made in house; host or cells: E. coli JMpβ5
Nature of the test: DNA polymerase assay, pol β. Particulars: 100 μM.
From the text: as §3, §4

T1 sequence (P54358 whole entry): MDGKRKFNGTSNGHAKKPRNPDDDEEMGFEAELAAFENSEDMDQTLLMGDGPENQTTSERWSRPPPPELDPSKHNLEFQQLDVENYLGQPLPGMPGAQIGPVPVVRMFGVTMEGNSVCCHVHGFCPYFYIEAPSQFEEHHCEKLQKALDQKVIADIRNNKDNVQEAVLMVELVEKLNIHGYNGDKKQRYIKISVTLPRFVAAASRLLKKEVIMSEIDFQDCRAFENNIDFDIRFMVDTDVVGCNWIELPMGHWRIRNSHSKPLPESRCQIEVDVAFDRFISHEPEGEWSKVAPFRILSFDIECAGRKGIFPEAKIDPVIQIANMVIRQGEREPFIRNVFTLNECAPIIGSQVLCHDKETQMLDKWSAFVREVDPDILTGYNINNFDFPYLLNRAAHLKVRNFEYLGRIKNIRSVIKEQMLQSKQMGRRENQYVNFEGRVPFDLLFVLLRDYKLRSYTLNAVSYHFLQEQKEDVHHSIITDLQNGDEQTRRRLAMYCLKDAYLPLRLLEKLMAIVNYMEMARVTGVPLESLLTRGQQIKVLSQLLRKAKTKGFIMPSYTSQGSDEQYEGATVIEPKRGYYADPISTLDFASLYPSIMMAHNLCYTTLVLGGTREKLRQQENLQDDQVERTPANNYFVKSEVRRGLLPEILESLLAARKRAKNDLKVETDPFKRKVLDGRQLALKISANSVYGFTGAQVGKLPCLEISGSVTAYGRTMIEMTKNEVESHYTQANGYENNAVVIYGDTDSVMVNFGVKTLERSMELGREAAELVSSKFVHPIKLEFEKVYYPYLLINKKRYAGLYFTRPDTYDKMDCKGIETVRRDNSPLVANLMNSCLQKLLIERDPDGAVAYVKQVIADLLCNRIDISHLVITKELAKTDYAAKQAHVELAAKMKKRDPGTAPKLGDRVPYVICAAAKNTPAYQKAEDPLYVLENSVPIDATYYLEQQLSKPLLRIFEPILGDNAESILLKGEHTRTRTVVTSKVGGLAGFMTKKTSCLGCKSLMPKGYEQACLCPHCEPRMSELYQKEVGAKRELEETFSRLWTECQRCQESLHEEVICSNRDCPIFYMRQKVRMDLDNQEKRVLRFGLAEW
mouse inosine 5′-monophosphate (IMP) dehydrogenase (type II), sequence (P24547 whole entry): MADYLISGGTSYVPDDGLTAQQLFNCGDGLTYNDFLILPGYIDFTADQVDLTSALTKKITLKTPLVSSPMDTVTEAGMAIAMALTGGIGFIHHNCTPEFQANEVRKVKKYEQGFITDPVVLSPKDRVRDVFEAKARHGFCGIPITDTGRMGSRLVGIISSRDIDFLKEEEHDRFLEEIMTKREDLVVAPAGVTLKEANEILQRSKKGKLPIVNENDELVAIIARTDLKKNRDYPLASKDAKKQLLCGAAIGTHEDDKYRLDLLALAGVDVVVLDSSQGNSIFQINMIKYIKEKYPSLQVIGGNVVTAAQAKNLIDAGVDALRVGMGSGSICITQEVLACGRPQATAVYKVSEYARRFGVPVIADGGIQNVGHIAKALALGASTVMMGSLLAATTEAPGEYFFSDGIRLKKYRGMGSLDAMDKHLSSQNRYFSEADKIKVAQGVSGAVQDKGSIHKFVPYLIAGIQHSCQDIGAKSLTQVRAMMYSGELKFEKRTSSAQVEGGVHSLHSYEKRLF

On to `C/C=C/c1occ(C(=O)c2c(OC)cc(OC)cc2C(=O)OC)c(=O)c1OC` [compound 1, 3-O-methylfunicone], for which the “effect on fruit fly pol δ activity” value at fruit fly pol δ was “hardly influenced”. The “effect on human topoisomerase I activity” value on human topoisomerase I was “did not influence”. Also, at human pol η (100 μM), the “effect on pol η activity” value is reported as “selectively inhibit”. Also, the concentration for half-maximal inhibition (IC50) on human pol η (poly(dA)/oligo(dT)18 and dTTP, 0.05 units enzyme, read-out: 50% inhibition of pol η (IC50)) is 50.1 µM. Further, the “effect on mouse IMP dehydrogenase (type II) activity” value in test [1] is recorded as “did not influence”. Also, the “effect on calf primase of pol α activity” value in the test on calf primase of pol α is on record as “did not influence”. The “effect on cauliflower pol α activity” value with cauliflower pol α is “no effect”. At bovine DNase I, the “effect on bovine DNase I activity” value is reported as “did not influence”. Besides, the “effect on pol β activity” value on rat pol β is recorded as “hardly influenced”.
